Values of other authors in US20030077302A1, “Diclofenamide suspension gel” (priority 2000, published 2003).

Assays:
intraocular pressure = conditions: rabbits
[1] = rabbits, topical suspensions

SMILES	tolerability, single applications (rabbit, in vivo)	side effects, repeated use (rabbits, solutions, repeated use)	reduction of the intraocular pressure (intraocular pressure; topical aqueous solution)	reduction of the intraocular pressure compared with suspensions of the free acid of diclofenamide (intraocular pressure; topical solutions)	aqueous humor values compared with solutions of sodium diclofenamide [1]
NS(=O)(=O)c1cc(Cl)c(Cl)c(S(N)(=O)=O)c1 [diclofenamide sodium]	well tolerated	severe undesirable side effects	clear and long lasting reduction of the intraocular pressure	clearly stronger and longer reduction of the intraocular pressure	
NS(=O)(=O)c1cc(Cl)c(Cl)c(S(N)(=O)=O)c1 [diclofenamide, 4,5-dichlorbenzene-1,3-disulfonamide]					clearly at a lower level
